The subject of this data set is Pancreatin. Description: Protease stability in simulated intestinal fluid (Pancreatin-SIF, FaSSIF). In kind it is in vitro ADME. As to conditions: 1 μM peptide, 37° C.; for remaining at 1 h, 1 µM: 60 min, read-out: FaSSIF 60 (min), remaining percent of peptide; for remaining at 2 h, 1 µM: 120 min, read-out: FaSSIF 120 (min), remaining percent of peptide; for remaining at 4 h, 1 µM: 240 min, read-out: FaSSIF 240 (min), remaining percent of peptide. The procedure, abridged:
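Peptide (1 μM final) was incubated at 37° C in simulated intestinal fluid containing pancreatin (1 mg per 10 mL SIF concentrate). Samples were quenched with ethanol/0.1% HCOOH at 0, 60, 120 and 240 min and analysed by LC-MS/MS. Percent remaining is the peak area relative to time 0 (100%).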

Starred links: 1 amine or outer side, 2 acyl side, 3 side chain; linkers in the order of their positions; H or OH if unused. Positions of bridges follow the written chain, without caps; N, C: chain ends. Non-standard residues stand in square brackets, D forms with d. Residues, ends and D or L forms follow the SMILES beside them. *: point of attachment. X3 = CN(CCCCC(=O)N[C@@H](CS[*:2])C(=O)[*:1])[*:3]; Trp(7-Me) = Cc1cccc2c(C[C@H](N)C(=O)O)c[nH]c12; 2Nal = N[C@@H](Cc1ccc2ccccc2c1)C(=O)O; AEF = NCCOc1ccc(C[C@H](N)C(=O)O)cc1; X4 = CN(CCCCCC(=O)[*:2])[*:1]; αMeL = CC(C)C[C@](C)(N)C(=O)O; Suc = O=C(CCC(=O)[*:2])[*:1]; Thp = NC1(C(=O)O)CCOCC1; Me2NCH2CH2 = CN(C)CC*; Aib = CC(C)(N)C(=O)O; Ava = NCCCCC(=O)O; βAla = NCCC(=O)O; Sar = CNCC(=O)O

The values below come from patent US20260258084A1, “New Peptides as Selective IL-23 Receptor Antagonists” (Sanofi, priority 2022, published 2026).

Consider `CC(=O)N[C@H]1CCCCNC(=O)[C@@H]2CSSC[C@H](NC(=O)[C@H](CCC(N)=O)NC(=O)[C@H](Cc3c[nH]c4ccccc34)NC1=O)C(=O)N[C@@H](Cc1ccc(OCCN)cc1)C(=O)N[C@@H](Cc1ccc3ccccc3c1)C(=O)NC1(CCOCC1)C(=O)N[C@H](C(=O)N[C@@H](CC(N)=O)C(=O)NCC(N)=O)CCC(=O)N(C)CCCCC(=O)N2` [compound 16] (Ac-KWQC[AEF][2Nal][Thp]ENG-NH2; linker 1-4-8 via X3), for which the share remaining (in general, the share of the starting amount still present when the sample was taken) at 1 h, 1 µM is 83%; the share remaining at 2 h, 1 µM is 67%; the share remaining at 4 h, 1 µM is 50%.

In the case of `CC(=O)N[C@H]1CCCCNC(=O)[C@@H]2CSSC[C@H](NC(=O)[C@H](CCC(N)=O)NC(=O)[C@H](Cc3c[nH]c4ccccc34)NC1=O)C(=O)N[C@@H](Cc1ccc(OCCN)cc1)C(=O)N[C@@H](Cc1ccc3ccccc3c1)C(=O)NC1(CCOCC1)C(=O)N[C@H](C(=O)N[C@@H](C)C(=O)NCC(N)=O)CCC(=O)N(C)CCCCC(=O)N2` [compound 17] (Ac-KWQC[AEF][2Nal][Thp]EAG-NH2; linker 1-4-8 via X3), the share remaining at 1 h, 1 µM was 81%; the amount remaining at 2 h, 1 µM is 75%; the fraction remaining at 4 h, 1 µM is 64%.

Turning to `CC(=O)NCCCC[C@@H]1NC(=O)[C@H](Cc2c[nH]c3c(C)cccc23)NC(=O)[C@H]([C@@H](C)O)NC(=O)[C@H](CC(N)=O)NC(=O)[C@@H]2CSSC[C@H](NC1=O)C(=O)N[C@@H](Cc1ccc(OCCN(C)C)cc1)C(=O)N[C@@H](Cc1ccc3ccccc3c1)C(=O)N[C@@](C)(CC(C)C)C(=O)N[C@H](C(=O)N[C@@H](CC(N)=O)C(=O)N[C@@H](Cc1c[nH]cn1)C(=O)NCCC(N)=O)CCC(=O)NCCCCC(=O)N2` [compound 50] ([Ava]CNT[Trp(7-Me)]K(Ac)CY(Me2NCH2CH2)[2Nal][αMeL]ENH[βAla]-NH2; disulfide 2-7; lactam N-11), the share remaining at 1 h, 1 µM was 95%; the fraction remaining at 2 h, 1 µM was 85%; the amount remaining at 4 h, 1 µM is 85%.

Take `CC(=O)N[C@H]1CCCCNC(=O)[C@@H]2CSSC[C@H](NC(=O)[C@H](CCC(N)=O)NC(=O)[C@H](Cc3c[nH]c4ccccc34)NC1=O)C(=O)N[C@@H](Cc1ccc(OCCN)cc1)C(=O)N[C@@H](Cc1ccc3ccccc3c1)C(=O)NC(C)(C)C(=O)N[C@H](C(=O)N[C@@H](C)C(=O)N[C@H](CC(C)C)C(N)=O)CCC(=O)N(C)CCCCC(=O)N2` [compound 19] (Ac-KWQC[AEF][2Nal][Aib]EA[dL]-NH2; linker 1-4-8 via X3): the fraction remaining at 1 h, 1 µM is 92%; the fraction remaining at 2 h, 1 µM was 81%; the amount remaining at 4 h, 1 µM is 76%.

Take `CC(=O)N[C@H]1CCCCNC(=O)[C@@H]2CSSC[C@H](NC(=O)[C@H](CCC(N)=O)NC(=O)[C@H](Cc3c[nH]c4ccccc34)NC1=O)C(=O)N[C@@H](Cc1ccc(OCCN)cc1)C(=O)N[C@@H](Cc1ccc3ccccc3c1)C(=O)NC1(CCOCC1)C(=O)N[C@H](C(=O)N[C@@H](CC(N)=O)C(=O)N[C@@H](CC(N)=O)C(N)=O)CCC(=O)N(C)CCCCC(=O)N2` [compound 13] (Ac-KWQC[AEF][2Nal][Thp]ENN-NH2; linker 1-4-8 via X3): the fraction remaining at 1 h, 1 µM was 83%; the fraction remaining at 2 h, 1 µM was 70%; the amount remaining at 4 h, 1 µM was 54%.

In the case of `CC(=O)NCCCC[C@@H]1NC(=O)[C@H](Cc2c[nH]c3c(C)cccc23)NC(=O)[C@H]([C@@H](C)O)NC(=O)[C@H](CC(N)=O)NC(=O)[C@@H]2CSSC[C@H](NC1=O)C(=O)N[C@@H](Cc1ccc(OCCN(C)C)cc1)C(=O)N[C@@H](Cc1ccc3ccccc3c1)C(=O)NC1(CCOCC1)C(=O)N[C@H](C(=O)N[C@@H](CC(N)=O)C(=O)N[C@@H](Cc1c[nH]cn1)C(=O)N(C)CC(N)=O)CCC(=O)NCCCCC(=O)N2` [compound 46] ([Ava]CNT[Trp(7-Me)]K(Ac)CY(Me2NCH2CH2)[2Nal][Thp]ENH[Sar]-NH2; disulfide 2-7; lactam N-11), the amount remaining at 1 h, 1 µM was 89%; the share remaining at 2 h, 1 µM was 82%; the share remaining at 4 h, 1 µM was 81%.

For `CC(=O)NCCCC[C@@H]1NC(=O)[C@H](Cc2c[nH]c3c(C)cccc23)NC(=O)[C@H]([C@@H](C)O)NC(=O)[C@H](CC(N)=O)NC(=O)[C@@H]2CSSC[C@H](NC1=O)C(=O)N[C@@H](Cc1ccc(OCCN(C)C)cc1)C(=O)N[C@@H](Cc1ccc3ccccc3c1)C(=O)N[C@@](C)(CC(C)C)C(=O)N[C@H](C(=O)N[C@@H](CC(N)=O)C(=O)N[C@@H](Cc1c[nH]cn1)C(N)=O)CCCCNC(=O)CCC(=O)N2` [compound 23] (CNT[Trp(7-Me)]K(Ac)CY(Me2NCH2CH2)[2Nal][αMeL]KNH-NH2; disulfide 1-6; linker N-10 via Suc), the share remaining at 1 h, 1 µM is 79%; the share remaining at 2 h, 1 µM is 68%; the fraction remaining at 4 h, 1 µM is 67%.

Take `COc1ccc(C[C@@H]2NC(=O)[C@@H]3CSSC[C@H](NC(=O)CCC(=O)NCCCC[C@@H](C(=O)N[C@@H](CC(N)=O)C(=O)N[C@@H](CC(N)=O)C(N)=O)NC(=O)C(C)(C)NC(=O)[C@H](Cc4ccc5ccccc5c4)NC2=O)C(=O)N[C@@H](CC(N)=O)C(=O)N[C@@H]([C@@H](C)O)C(=O)N[C@@H](Cc2c[nH]c4ccccc24)C(=O)N[C@@H](CCC(N)=O)C(=O)N3)cc1` [compound 11]: the amount remaining at 1 h, 1 µM is 80%; the share remaining at 2 h, 1 µM was 76%; the share remaining at 4 h, 1 µM was 65%.

Regarding `CC(C)C[C@@H](NC(=O)[C@H](CC(N)=O)NC(=O)[C@@H]1CCC(=O)NCCCCC(=O)N[C@H]2CSSC[C@H](NC(=O)[C@H](CCC(N)=O)NC(=O)[C@H](Cc3c[nH]c4ccccc34)NC(=O)[C@H]([C@@H](C)O)NC(=O)[C@H](CC(N)=O)NC2=O)C(=O)N[C@@H](Cc2ccc(OCCN(C)C)cc2)C(=O)N[C@@H](Cc2ccc3ccccc3c2)C(=O)N[C@@](C)(CC(C)C)C(=O)N1)C(N)=O` [compound 10] ([Ava]CNTWQCY(Me2NCH2CH2)[2Nal][αMeL]EN[dL]-NH2; disulfide 2-7; lactam N-11), the fraction remaining at 1 h, 1 µM is 84%; the fraction remaining at 2 h, 1 µM is 81%; the fraction remaining at 4 h, 1 µM is 80%.

Take `COc1ccc(C[C@@H]2NC(=O)[C@@H]3CSSC[C@H](NC(=O)CCCCNC(=O)CC[C@@H](C(=O)N[C@@H](CC(N)=O)C(=O)NCC(N)=O)NC(=O)C(C)(C)NC(=O)[C@H](Cc4ccc5ccccc5c4)NC2=O)C(=O)N[C@@H](CC(N)=O)C(=O)N[C@@H]([C@@H](C)O)C(=O)N[C@@H](Cc2c[nH]c4ccccc24)C(=O)N[C@@H](CCC(N)=O)C(=O)N3)cc1` [compound 4] ([Ava]CNTWQCY(Me)[2Nal][Aib]ENG-NH2; disulfide 2-7; lactam N-11): the fraction remaining at 1 h, 1 µM is 91%; the amount remaining at 2 h, 1 µM was 82%; the fraction remaining at 4 h, 1 µM was 73%.

Turning to `CC(=O)NCCCC[C@@H]1NC(=O)[C@H](Cc2c[nH]c3c(C)cccc23)NC(=O)[C@H]([C@@H](C)O)NC(=O)[C@H](CC(N)=O)NC(=O)[C@@H]2CSSC[C@H](NC1=O)C(=O)N[C@@H](Cc1ccc(OCCN(C)C)cc1)C(=O)N[C@@H](Cc1ccc3ccccc3c1)C(=O)NC(C)(C)C(=O)N[C@H](C(=O)N[C@@H](CC(N)=O)C(=O)N[C@@H](Cc1c[nH]cn1)C(=O)N(C)CC(N)=O)CCC(=O)NCCCCC(=O)N2` [compound 45] ([Ava]CNT[Trp(7-Me)]K(Ac)CY(Me2NCH2CH2)[2Nal][Aib]ENH[Sar]-NH2; disulfide 2-7; lactam N-11), the fraction remaining at 1 h, 1 µM was 82%; the fraction remaining at 2 h, 1 µM was 83%; the fraction remaining at 4 h, 1 µM is 74%.

Turning to `CC(=O)NCCCC[C@@H]1NC(=O)[C@H](Cc2c[nH]c3c(C)cccc23)NC(=O)[C@H]([C@@H](C)O)NC(=O)[C@H](CC(N)=O)NC(=O)[C@@H]2CSSC[C@H](NC1=O)C(=O)N[C@@H](Cc1ccc(OCCN(C)C)cc1)C(=O)N[C@@H](Cc1ccc3ccccc3c1)C(=O)N[C@@](C)(CC(C)C)C(=O)N[C@H](C(=O)N[C@@H](CC(N)=O)C(=O)N[C@@H](Cc1c[nH]cn1)C(=O)N(C)CC(N)=O)CCC(=O)NCCCCC(=O)N2` [compound 47] ([Ava]CNT[Trp(7-Me)]K(Ac)CY(Me2NCH2CH2)[2Nal][αMeL]ENH[Sar]-NH2; disulfide 2-7; lactam N-11), the share remaining at 1 h, 1 µM is 87%; the fraction remaining at 2 h, 1 µM is 85%; the fraction remaining at 4 h, 1 µM was 82%.

Take `CC(C)C[C@@H](NC(=O)[C@H](CC(N)=O)NC(=O)[C@@H]1CC(=O)N(C)CCCCCC(=O)N[C@H]2CSSC[C@H](NC(=O)[C@H](CCC(N)=O)NC(=O)[C@H](Cc3c[nH]c4ccccc34)NC(=O)[C@H]([C@@H](C)O)NC(=O)[C@H](CC(N)=O)NC2=O)C(=O)N[C@@H](Cc2ccc(OCCN(C)C)cc2)C(=O)N[C@@H](Cc2ccc3ccccc3c2)C(=O)N[C@@](C)(CC(C)C)C(=O)N1)C(N)=O` [compound 40] ([X4]CNTWQCY(Me2NCH2CH2)[2Nal][αMeL]DN[dL]-NH2; disulfide 2-7; lactam N-11): the share remaining at 1 h, 1 µM is 77%; the amount remaining at 2 h, 1 µM was 70%; the fraction remaining at 4 h, 1 µM is 54%.
